We go through 3 molecules from patent US8604073B2, “Antimicrobial composition” (Ethicon, Inc., priority 2006, dated 2013).

One assay has as its system MRSA-002. Put plainly: Viable plate count, resistant bacteria, protocol of Example 1.
A further assay relates to MRSA-006. The assay is described as above.
In a further assay the test system is MRSA 006. Briefly: Zone of inhibition of treated Nu-Gel hydrogel squares on inoculated TSA agar.
The subject of a further assay is MRSE 51625. Briefly: Viable plate count, resistant bacteria, protocol of Example 1.
The subject of assay [1] is MRSE 700563. Put plainly: Zone of inhibition of treated Nu-Gel hydrogel squares on inoculated TSA agar.
The subject of assay [2] is MRSE 700563. Briefly: Viable plate count, resistant bacteria, protocol of Example 1.

Turning to `CCCCCCCCCCCC(=O)N[C@@H](CCCN=C(N)N)C(=O)OCC.Cl` [LAE, ethyl ester of the lauramide of the arginine monohydrochloride], in the assay with MRSA-002 (5 ppm), the “CFU/ml MRSA-002” value is listed as 5.0 × 10^6 CFU/ml. Further, the “CFU/ml MRSA-006” value with MRSA-006 (5 ppm) is reported as 6.2 × 10^8 CFU/ml. In addition, in the assay on MRSA 006 (6 ug/cm^2, 48 hours at 37° C.), the “Zone of inhibition (mm) MRSA 006” value stood at 0 mm. Also, the “CFU/ml MRSE 51625” value with MRSE 51625 (5 ppm) is given as 1.2 × 10^9 CFU/ml. Besides, the “Zone of inhibition (mm) MRSE 700563” value in the assay with MRSE 700563 [1] (6 ug/cm^2, 48 hours at 37° C.) was 0 mm. In addition, the “CFU/ml MRSE 700563” value in the assay on MRSE 700563 [2] (5 ppm) was 4.0 × 10^8 CFU/ml.

With Polymixin B [Polymixin B (PY)], the “CFU/ml MRSA-002” value in the assay on MRSA-002 (100 ppm) is reported as 1.2 × 10^9 CFU/ml. Besides, the “CFU/ml MRSA-006” value with MRSA-006 (100 ppm) was 1.2 × 10^9 CFU/ml. In addition, in the assay with MRSA 006 (60 ug/cm^2, 48 hours at 37° C.), the “Zone of inhibition (mm) MRSA 006” value is given as 0 mm. Moreover, in the assay with MRSE 51625 (100 ppm), the “CFU/ml MRSE 51625” value is listed as 6.2 × 10^8 CFU/ml. Besides, in the assay on MRSE 700563 [1] (60 ug/cm^2, 48 hours at 37° C.), the “Zone of inhibition (mm) MRSE 700563” value was 0 mm. Moreover, the “CFU/ml MRSE 700563” value in the assay with MRSE 700563 [2] (100 ppm) is recorded as 1.2 × 10^9 CFU/ml.

Take `Cc1nnc(SCC2=C(C(=O)O)N3C(=O)[C@@H](NC(=O)Cn4cnnn4)[C@H]3SC2)s1` [Cefazolin (CF), Cefazolin]: in the assay on MRSA-002 (100 ppm), the “CFU/ml MRSA-002” value is reported as 1.1 × 10^9 CFU/ml. Moreover, the “CFU/ml MRSA-006” value in the assay with MRSA-006 (100 ppm) is listed as 1.4 × 10^5 CFU/ml. Besides, in the assay with MRSA 006 (60 ug/cm^2, 48 hours at 37° C.), the “Zone of inhibition (mm) MRSA 006” value was 0 mm. In addition, in the assay with MRSE 51625 (100 ppm), the “CFU/ml MRSE 51625” value is reported as 1.5 × 10^6 CFU/ml. Also, in the assay on MRSE 700563 [1] (60 ug/cm^2, 48 hours at 37° C.), the “Zone of inhibition (mm) MRSE 700563” value is 0 mm. For the same molecule, the “CFU/ml MRSE 700563” value in the assay with MRSE 700563 [2] (100 ppm) was 1.5 × 10^8 CFU/ml.
